# In publication PMC5520654 (Journal of immunology (Baltimore, Md. : 1950), 2017):
# Read-outs that look alike come from different tables or passages of the source.
# Experiments:
# [1] = system: VLA-4 positive B16F10 melanoma cells; conditions: previously reported; cited from earlier work
# [2] = system: mice with CFA-induced inflammation; type: in vivo, mouse; conditions: ICR mice, CFA in right paw, 200 μCi iv, n=3
substance,measurement,setting,value
CB-TE1A1P-PEG4-LLP2A [^64Cu-LLP2A],Kd,[1],0.28 nM
same,Inflamed paw/muscle ratio,[2]; PET/CT 2 h post-injection,7.5 ± 3.7
same,Inflamed paw/muscle ratio,[2]; PET/CT 6 h post-injection,16.7 ± 1
